Data: paper PMC10222987 (Viruses, 2023)

Assay: in vivo
Settings: BALB/c, mouse, sc; for AUC(0-t): AUC0–24

O=C1c2c(O)c(=O)ccn2N([C@@H]2c3ccccc3SCc3c2ccc(F)c3F)[C@@H]2COCCN12 [baloxavir acid]
AUC(0-t) (0.125 mg/kg): 267 ng·h/mL
Cmax (0.125 mg/kg): 18.7 ng/mL
AUC(0-t) (0.25 mg/kg): 535 ng·h/mL
Cmax (0.25 mg/kg): 37.3 ng/mL
AUC(0-t) (0.5 mg/kg): 961 ng·h/mL
Cmax (0.5 mg/kg): 66.1 ng/mL
AUC(0-t) (1 mg/kg): 1810 ng·h/mL
Cmax (1 mg/kg): 124 ng/mL
Cmax (2 mg/kg): 222 ng/mL
Cmax (4 mg/kg): 417 ng/mL
AUC(0-t) (8 mg/kg): 6380 ng·h/mL
Cmax (8 mg/kg): 414 ng/mL
AUC(0-t) (16 mg/kg): 11100 ng·h/mL
Cmax (16 mg/kg): 726 ng/mL
AUC(0-t) (32 mg/kg): 8860 ng·h/mL
Cmax (32 mg/kg): 682 ng/mL
AUC(0-t) (64 mg/kg): 12600 ng·h/mL
Cmax (64 mg/kg): 938 ng/mL
